# In US6375979B2 (Somerset Pharmaceuticals, Inc., priority 1995, dated 2002):
# Several values for one entry are separate records, joined by “and”; a condition that tells them apart may be missing. Identical values can stand only once.
# Experiments:
# MAO-B = target: T1, MAO-B (Cavia porcellus, UniProt P58028); assay: MAO-B inhibition in guinea pig hippocampal homogenates in vitro; assay type: biochemical; details: read-out: MAO-B % Inhibition x ± SEM
# T1 construct: by human platelets and/or guinea pig hippocampal homogenates; from tissue; host or cells: guinea pig hippocampus homogenate
# T1 sequence (P58028 1-520): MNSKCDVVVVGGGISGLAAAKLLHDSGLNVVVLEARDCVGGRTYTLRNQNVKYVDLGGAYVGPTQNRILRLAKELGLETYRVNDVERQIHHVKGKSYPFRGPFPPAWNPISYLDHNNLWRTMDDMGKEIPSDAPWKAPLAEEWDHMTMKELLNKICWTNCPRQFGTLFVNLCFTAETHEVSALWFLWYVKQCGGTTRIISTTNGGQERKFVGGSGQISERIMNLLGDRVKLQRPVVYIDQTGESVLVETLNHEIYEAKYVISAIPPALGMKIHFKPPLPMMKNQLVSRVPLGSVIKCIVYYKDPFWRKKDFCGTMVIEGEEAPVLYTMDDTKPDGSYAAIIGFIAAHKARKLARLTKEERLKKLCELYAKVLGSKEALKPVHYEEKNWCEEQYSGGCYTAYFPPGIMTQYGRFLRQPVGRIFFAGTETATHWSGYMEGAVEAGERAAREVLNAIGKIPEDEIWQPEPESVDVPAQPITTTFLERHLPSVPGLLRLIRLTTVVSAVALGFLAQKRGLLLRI
# From the text: Human platelet MAO is comprised exclusively of the type-B isoform of the enzyme. […] The present study also examined the two enantiomers of DMS for inhibitory activity with respect to the MAO-A and MAO-B in guinea pig hippocampal tissue. Guinea pig brain tissue is an excellent animal model for studying brain dopamine metabolism, the enzyme kinetics of the multiple forms of MAO and the inhibitory properties of novel agents that interact with these enzymes. The multiple forms of MAO in this animal species show similar kinetic properties to those found in human brain tissue. Finally, the test agents were administered to guinea pigs and the extent to which they might act as inhibitors of brain MAO in vivo was assessed.
# In vitro: The test system utilized the in vitro conversion of specific substrates of MAO-A (^14C-serotonin) and MAO-B (^14C-phenylethylamine) by human platelets and/or guinea pig hippocampal homogenates. […] A percent inhibition was calculated from these values.
# MAO-A = target: T2, MAO-A (Cavia porcellus, UniProt H0UVA2); assay: In vivo MAO-A inhibition in guinea pig cortex (hippocampus) after 5 s.c. treatments; details: 10 mg/kg, highest dose tested
# T2 sequence (H0UVA2 1-461): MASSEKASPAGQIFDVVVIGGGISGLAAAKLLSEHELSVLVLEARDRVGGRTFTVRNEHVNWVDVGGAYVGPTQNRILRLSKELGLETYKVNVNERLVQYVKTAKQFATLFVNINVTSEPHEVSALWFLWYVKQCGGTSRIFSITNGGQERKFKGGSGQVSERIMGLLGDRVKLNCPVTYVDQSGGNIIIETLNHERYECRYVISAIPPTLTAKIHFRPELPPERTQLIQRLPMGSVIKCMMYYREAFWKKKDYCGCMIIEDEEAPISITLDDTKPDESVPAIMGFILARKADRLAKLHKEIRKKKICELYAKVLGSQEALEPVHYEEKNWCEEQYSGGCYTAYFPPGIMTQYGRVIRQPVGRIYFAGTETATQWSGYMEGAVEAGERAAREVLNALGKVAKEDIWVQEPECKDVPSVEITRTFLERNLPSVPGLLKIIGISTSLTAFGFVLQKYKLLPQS
# [1] = system: cultured embryonic mesencephalic cells; assay: Neuronal survival: [3H]dopamine uptake by cultured mesencephalic cells; assay type: cell-based, rat
# From the text: The amount of uptake by the cultured brain cells corresponds to axonal growth.
# [2] = system: cultured rat mesencephalic cells exposed to NMDA; assay: NMDA model of cell death: TH immunochemistry; details: 100 μM NMDA exposure
# Description: Rat mesencephalic cell cultures were exposed to 100 μM NMDA and incubated as described above in connection with FIG. 16.
Compound,inhibition at 1 µM (MAO-B) [%],inhibition of MAO-A activity in vivo (MAO-A),"3H-Dopamine Uptake, % Cont ([1]; 0.5 μM) [%]","3H-Dopamine Uptake, Mean ([1]; 0.5 μM)","3H-Dopamine Uptake, % Cont ([1]; 5 μM) [%]","3H-Dopamine Uptake, Mean ([1]; 5 μM)","3H-Dopamine Uptake, % Cont ([1]; 50 μM) [%]","3H-Dopamine Uptake, Mean ([1]; 50 μM)","TH Immunochemistry, % control, Mean ([2]; 0.5 μM) [%]","TH Immunochemistry, % control, individual cultures ([2]; 0.5 μM)","TH Immunochemistry, cells/cm^2, Mean ([2]; 0.5 μM) [cells/cm^2]","TH Immunochemistry, cells/cm^2, individual cultures ([2]; 0.5 μM)","TH Immunochemistry, % control, Mean ([2]; 5.0 μM) [%]","TH Immunochemistry, % control, individual cultures ([2]; 5.0 μM)","TH Immunochemistry, cells/cm^2, Mean ([2]; 5.0 μM) [cells/cm^2]","TH Immunochemistry, cells/cm^2, individual cultures ([2]; 5.0 μM)","TH Immunochemistry, % control, Mean ([2]; 50 μM) [%]","TH Immunochemistry, % control, individual cultures ([2]; 50 μM)","TH Immunochemistry, cells/cm^2, Mean ([2]; 50 μM) [cells/cm^2]","TH Immunochemistry, cells/cm^2, individual cultures ([2]; 50 μM)"
"C#CCN[C@@H](C)Cc1ccccc1 (single isomer, unassigned) [S(+)DMS, ent-desmethylselegiline]",44.4 ± 6.4,did not cause any observable inhibition,–,–,–,–,–,–,–,–,–,–,–,–,–,–,–,–,–,–
desmethylselegiline [R(−)DMS],–,–,200.4,24020 ± 800,291.5,34936 ± 2119,474.3,56826 ± 2656,97.3,100.9% and 79.6% and 111.5%,91.67,95.0 cells/cm^2 and 75.0 cells/cm^2 and 105.0 cells/cm^2,136.1,151.3% and 130.1% and 138.1% and 124.8%,128.13,142.5 cells/cm^2 and 122.5 cells/cm^2 and 130.0 cells/cm^2 and 117.5 cells/cm^2,165.9,252.2% and 180.5% and 108.8% and 122.1%,156.25,237.5 cells/cm^2 and 170.0 cells/cm^2 and 102.5 cells/cm^2 and 115.0 cells/cm^2
